According to patent US4461761A, “Oligomers of compounds of the muramyl-peptide type and medicaments containing them” (priority 1978, dated 1984):

Tests used:
Klebsiella pneumoniae [1] = experiment: Anti-Klebsiella pneumoniae activity in the 7 day old mouse; type: in vivo; conditions: for % Protection / Number of mice D + 3 (survivors) / Number of mice D + 5 (survivors) / Number of mice D + 10 (survivors): 100 μg
From the text: (§1) The testing procedure is described in the article CHEDID L. et coll., Proc. Natl. Acad. Sci. USA, 74:2089.
(§2) It was shown that a dose of about 10^4 Klebsiella pneumoniae, injected by the intramuscular route in mice, results in the gradual death of a considerable part, if not all, of the animals in the week following the inoculation. After 8 days, the survival of the animals was definitely achieved.
(§3) The infection by Klebsiella pneumoniae, a strain of the capsular 2, biotype d type, was done from a culture of 16 hours in a medium for pneumococci (No. 53515, PASTEUR INSTITUTE).
(§4) Various treatment conditions and tests have been studied. Thus, the treatment was carried out either 24 hours before the test, or 1 hour after the latter. The influence of the infecting dose and the mode of administration has also been studied. In particular, the protective properties of the products have been determined in the case of an injection of Klebsiella pneumoniae by the intravenous route, which corresponds to a severe infection.
(§5) In the majority of cases, the tests have been carried out on mice aged from 5 to 6 weeks. In one part of the tests, on the other hand, mice 7 days old were used, since the immune responses, in very young subjects are substantially different, and, on the whole, much more difficult to stimulate than those that are observed in adult subjects.
(§6) The products are administered in apyrogenic physiological solution in the proportion of 0.2 ml for intravenous administration to adult mice and 0.05 ml for sub-cutaneous injection to mice 7 days old. The controls received the solution alone.
(§7) The percentage protection indicated corresponds to the difference in percentages of survivors of the treated group with respect to the control group.
The results reported in the following table represent the tests carried out in mice aged 7 days.

[2] = tested on: Limulus amoebocyte lysate; experiment: Limulus test (endotoxic type activity, gel formation)
Procedure: To show the absence of activity of the endotoxic type, products according to the invention were subjected to the Limulus test. For this purpose, 0.1 ml of the Limulus amoebocyte lysate preparation (marketed by the MALLINCKRODT Company, at Saint Louis, U.S.A.) was mixed with an equal volume of the tested product at various concentrations in solution in apyrogenic distilled water. The vessels used were also made apyrogenic by dry heating in the oven, at 180° C., for 2 hours.
After incubating the mixture for 20 minutes at 37° C. in tubes, the formation of gel characteristic of the presence of endotoxin was estimated.
A test is positive when the presence of a firm gel is observed which remains adherent to the bottom of the tube when the latter is inverted (technique described by Elin R. J. and Wolff S. M., J. Infect. Dis., 1973, 126: 349).

[3] = tested on: bovine serum albumin (BSA); experiment: Adjuvant character in the aqueous phase (anti-BSA antibody titer, passive hemagglutination); type: in vivo, Swiss mice; conditions: 100 μg adjuvant s.c. with 0.5 mg BSA in isotonic saline; booster day 30; six days after booster; maximum serum dilution agglutinating
Procedure: Groups of 8 Swiss mice aged two months received, by sub-cutaneous injection (SC), 0.5 mg of antigen constituted by bovine serum albumin (BSA) with 0.1 mg or without the tested substance in an isotonic saline solution. This high dose of antigen, because it is situated at the limit of the paralyzing dose with respect to the immunitary response, results, for this reason, in a weak or zero response to the antigen only in the controls: It constitutes therefore a severe criterion to establish the activity of an adjuvant substance. Thirty days later, the mice received, by the same administrative route, a booster containing 0.1 mg of the same antigen.
The antibody level was determined, six days after the booster, by passive hemagglutination using sheep's red blood corpuscles treated with formalin and covered with the antigen studied according to the method described by A. A. HIRATA and M. W. BRANDISS (J. Immunol., 100, 641-648, 1968).
The antibody titer, represented by the maximum serum dilution agglutinating a given amount of sheep corpuscles, reaches a maximum at the 36th day. The results obtained for various products according to the invention are shown in Table I. By way of comparison, the results obtained with MDP are indicated, on the one hand, and for PAP-MDP, on the other hand.

Listeria monocytogenes = experiment: Anti-Listeria monocytogenes activity in the adult mouse; type: in vivo; conditions: Listeria i.v. 10^3, treatment D-1, i.v.
Procedure: Under similar conditions to those of the tests of (4), the influence of the administration of the oligomer of p.aminophenyl-glycoside MDP was determined on the mortality of mice in which a dose of Listeria monocytogenes is administered, known for generating typically an infection of cellular type. As previously, the action of the product according to the invention was compared with that of Corynebacterium granulosum of which the anti-infectious properties are well known in this field. It was also determined, still by way of comparison, the action of Mur-NAc-L-Ala-D-isoGln (MDP).
The treatment of the mice and the inoculation were carried out intravenously. The injected products were in solution or suspension in 0.2 ml of apyrogenic physiological solution. The controls only received the solution.
The dose of Listeria administered was, in all the tests, 1.10^3 units.
The test whose results are given below have been carried out varying the doses of the tested products and the interval of time separating the treatment of inoculation of the Listeria monocytogenes (either 1, or 7 days). The number of surviving mice at the fifth and the tenth day following the inoculation was followed, and the percentage protection determined as for the preceding tests.

Klebsiella pneumoniae [4] = experiment: Anti-Klebsiella pneumoniae activity in the adult mouse; type: in vivo; conditions: for anti-infectious activity with respect to Klebsiella pneumoniae (in words) / % Protection / Number of mice D + 3 (survivors) / Number of mice D + 5 (survivors) / Number of mice D + 10 (survivors): adult mouse; for anti-infectious activity with respect to Klebsiella pneumoniae (in words): summary of Table 3; for % Protection / Number of mice D + 3 (survivors) / Number of mice D + 5 (survivors) / Number of mice D + 10 (survivors): i.v.
Procedure: An experimental procedure was studied by CHEDID L. et coll. in "Proc. Natl. Acad. Sci. USA," 1977, 74: 2089, which permits the stimulating effect or not to be observed of substances studied with regard to immune defenses according as they protect or not the mice to which they are injected, the mice being inoculated by a dose of Klebsiella pneumoniae which results in the death of almost all of the controls.
as §1, §2
The survival of groups of inoculated mice under the above conditions and treated by means of the products according to the invention was followed.
For these tests, hybrid mice (C57B1/6×AKR) FI bred at the PASTEUR INSTITUTE, from strains derived from the CNRS breeding station at ORLEANS, were used.
as §3, §4, §5, §6, §7

[5] = tested on: suprarenalectomized mouse; experiment: Toxicity, intravenous injection in the suprarenalectomized mouse; type: in vivo
From the text: The toxicity of the products according to the invention were studied by parenteral administration in mice. It was observed that the toxic doses were of an order of magnitude very much higher than that of the doses at which these products manifest their activity.
In addition, the activity/toxicity ratio is very favorable in the case of the pol-PAP-MDP, as appears when one considers the results of the tests reported below.

ovalbumin [6] = experiment: Adjuvant character in emulsion: serum antibodies specific for ovalbumin; type: in vivo, Hartley guinea pigs; conditions: emulsion with 1 mg ovalbumin, intradermal; product 50 μg in FIA; day 21; μg nitrogen precipitatable by antigen per ml serum
Procedure: (§8) The tests were carried out on batches of 6 male Hartley guinea pigs of 350 g. The administration was done by intradermal injection into the plantar pad of each of the rear paws. Ovalbumin (constituting the antigen) in the amount of 1 mg is prepared in 0.1 ml of an emulsion of saline isotonic solution, in an oily phase constituted either by the Freund incomplete adjuvant (FIA) or by the complete adjuvant (FCA) formed by the FIA to which is added 0.1 mg of whole Mycobacterium smegmatis cells. The compound according to the invention was administered in the amount of 0.05 mg added in the emulsion containing the FIA.
Twenty-one days after the injection, the animals were bled. On the collected serum, the content of specific antibodies of the ovalbumin was measured by precipitation of the antibody-antigen complex in the equivalence zone. The amount of protein nitrogen contained in the precipitate was estimated by the Folin method. These values express the amount, in micrograms, of nitrogen precipitatable by the antigen, per milliliter of the serum.

ovalbumin [7] = experiment: Adjuvant character in emulsion: delayed hypersensitivity cutaneous test; type: in vivo, Hartley guinea pigs; conditions: emulsion with 1 mg ovalbumin, intradermal; product 50 μg in FIA; challenge day 18, read 48 hours later
Procedure: as §8
Eighteen days after this immunization, possible delayed hypersensitivity reactions to the antigen were sought by injecting by the intradermal route 0.01 mg of ovalbumin in the side of the animals, and 48 hours later, the reaction of the point of injection was observed. The diameter in millimeters of the reaction thus-caused was measured.

[8] = infection i.v. 2.5 × 10^2, treatment -24 h, s.c.
[9] = infection s.c. 10^3, treatment -24, s.c.
[10] = infection i.m. 1.5 × 10^4, treatment +1 h, 10 μg
[11] = infection i.m. 1.5 × 10^4, treatment +1 h, 100 μg
[12] = infection i.m. 1.5 × 10^4, treatment -24 h, 10 μg
[13] = infection i.m. 1.5 × 10^4, treatment -24 h, 100 μg
[14] = infection i.v. 1.5 × 10^3, treatment -24 h, 10 μg
[15] = infection i.v. 1.5 × 10^3, treatment -24 h, 100 μg
[16] = infection i.v. 1.5 × 10^5, treatment -24 h, 100 μg

polymer of β-D-p.aminophenyl-glycoside of Mur-NAc-L-Ala-D-isoGln [Pol (PAP-MDP)]
% Protection (Klebsiella pneumoniae [1]; [8]): 41%
Number of mice D + 3 (survivors) (Klebsiella pneumoniae [1]; [8]): 14
Number of mice D + 5 (survivors) (Klebsiella pneumoniae [1]; [8]): 10
Number of mice D + 10 (survivors) (Klebsiella pneumoniae [1]; [8]): 9
% Protection (Klebsiella pneumoniae [1]; [9]): 34%
Number of mice D + 3 (survivors) (Klebsiella pneumoniae [1]; [9]): 22
Number of mice D + 5 (survivors) (Klebsiella pneumoniae [1]; [9]): 19
Number of mice D + 10 (survivors) (Klebsiella pneumoniae [1]; [9]): 19
anti-infectious activity with respect to Klebsiella pneumoniae (in words) (Klebsiella pneumoniae [1]; summary of Table 4): notable anti-infectious activity
times less active than the LPS on Limulus test [2]: 500,000 times
concentration leading to a positive response (Limulus test) ([2]; 20 minutes at 37° C., firm gel): ~15000 ng/mL
Antibody titer [3]: 50
% Protection (Listeria monocytogenes; 10 μg): 29%
Number of mice D + 5 (survivors) (Listeria monocytogenes; 10 μg): 10
Number of mice D + 10 (survivors) (Listeria monocytogenes; 10 μg): 6
% Protection (Listeria monocytogenes; 100 μg): 71%
Number of mice D + 5 (survivors) (Listeria monocytogenes; 100 μg): 23
Number of mice D + 10 (survivors) (Listeria monocytogenes; 100 μg): 19
anti-infectious activity with respect to Klebsiella pneumoniae (in words) (Klebsiella pneumoniae [4]): anti-infectious
% Protection (Klebsiella pneumoniae [4]; [10]): 50%
Number of mice D + 3 (survivors) (Klebsiella pneumoniae [4]; [10]): 16
Number of mice D + 5 (survivors) (Klebsiella pneumoniae [4]; [10]): 13
Number of mice D + 10 (survivors) (Klebsiella pneumoniae [4]; [10]): 11
% Protection (Klebsiella pneumoniae [4]; [11]): 81%
Number of mice D + 3 (survivors) (Klebsiella pneumoniae [4]; [11]): 16
Number of mice D + 5 (survivors) (Klebsiella pneumoniae [4]; [11]): 16
Number of mice D + 10 (survivors) (Klebsiella pneumoniae [4]; [11]): 16
% Protection (Klebsiella pneumoniae [4]; [12]): 58%
Number of mice D + 3 (survivors) (Klebsiella pneumoniae [4]; [12]): 24
Number of mice D + 5 (survivors) (Klebsiella pneumoniae [4]; [12]): 21
Number of mice D + 10 (survivors) (Klebsiella pneumoniae [4]; [12]): 19
% Protection (Klebsiella pneumoniae [4]; [13]): 72%
Number of mice D + 3 (survivors) (Klebsiella pneumoniae [4]; [13]): 24
Number of mice D + 5 (survivors) (Klebsiella pneumoniae [4]; [13]): 24
Number of mice D + 10 (survivors) (Klebsiella pneumoniae [4]; [13]): 22
% Protection (Klebsiella pneumoniae [4]; [14]): 16%
Number of mice D + 3 (survivors) (Klebsiella pneumoniae [4]; [14]): 22
Number of mice D + 5 (survivors) (Klebsiella pneumoniae [4]; [14]): 17
Number of mice D + 10 (survivors) (Klebsiella pneumoniae [4]; [14]): 9
% Protection (Klebsiella pneumoniae [4]; [15]): 75%
Number of mice D + 3 (survivors) (Klebsiella pneumoniae [4]; [15]): 15
Number of mice D + 5 (survivors) (Klebsiella pneumoniae [4]; [15]): 14
Number of mice D + 10 (survivors) (Klebsiella pneumoniae [4]; [15]): 14
% Protection (Klebsiella pneumoniae [4]; [16]): 12%
Number of mice D + 3 (survivors) (Klebsiella pneumoniae [4]; [16]): 12
Number of mice D + 5 (survivors) (Klebsiella pneumoniae [4]; [16]): 4
Number of mice D + 10 (survivors) (Klebsiella pneumoniae [4]; [16]): 3
active dose (anti-infectious activity) (Klebsiella pneumoniae [4]; as stated in the Limulus discussion): 10 μg per mouse
lethal dose 50 [5]: higher than 100 μg
times less toxic than endotoxin extracted from E. coli [5]: 5000 times

CC(=O)N[C@H]1[C@H](Oc2ccc(N)cc2)O[C@H](CO)[C@@H](O)[C@@H]1O[C@H](C)C(=O)N[C@@H](C)C(=O)N[C@H](CCC(=O)O)C(N)=O [PAP-MDP, β-D-p.aminophenyl glycoside of N-acetyl-muramyl-L-alanyl-D-isoglutamine, reference compound]
Antibody titer [3]: 11
Serum antibodies (ovalbumin [6]): 3480 µg/mL
anti-infectious activity with respect to Klebsiella pneumoniae (in words) (Klebsiella pneumoniae [4]): practically not
% Protection (Klebsiella pneumoniae [4]; [13]): 19%
Number of mice D + 3 (survivors) (Klebsiella pneumoniae [4]; [13]): 28
Number of mice D + 5 (survivors) (Klebsiella pneumoniae [4]; [13]): 17
Number of mice D + 10 (survivors) (Klebsiella pneumoniae [4]; [13]): 11
% Protection (Klebsiella pneumoniae [4]; [15]): 0%
Number of mice D + 3 (survivors) (Klebsiella pneumoniae [4]; [15]): 6
Number of mice D + 5 (survivors) (Klebsiella pneumoniae [4]; [15]): 2
Number of mice D + 10 (survivors) (Klebsiella pneumoniae [4]; [15]): 2
Cutaneous test diameter in mm (ovalbumin [7]): 14.4 mm
